Test results: US20060115815A1 (priority 2002, published 2006)
Read-outs that look alike come from different tables or passages of the source.

Assays:
[1] = beagle, dog, in vivo, po
[2] = test system: recombinant HIV-1 strains with resistance mutations in the protease gene; assay: Cross-resistance profile assay, whole panel of mutant viruses; format: cell-based
WT HIV-1 = assay: microbe, parasite or virus in culture; format: cell-based
[3] = test system: PBMC in intact human whole blood
84V90M [4] = target: T1, 84V90M (Human immunodeficiency virus type 1 group M subtype B, UniProt P04585, I572V/L578M); assay: cell-based; parameters: species or system HIV-1
84V90M [5] = target: T1, 84V90M; assay: biochemical; parameters: species or system HIV-1
WT = assay: microbe, parasite or virus in culture; format: cell-based, HIV-1
48V54V82A [6] = assay: microbe, parasite or virus in culture; format: cell-based, HIV-1
30N82I88D [7] = assay: microbe, parasite or virus in culture; format: cell-based, HIV-1
46I50V [8] = assay: microbe, parasite or virus in culture; format: cell-based, HIV-1
30N82I88D [9] = test system: 30N82I88D; parameters: species or system HIV-1; details: MT-4, 30N82I88D; read-out: Cell-based assay (MT-4) EC50/nM 30N82I88D
[10] = test system: mutant HIV-1 with I84V/L90M mutations in the protease gene; format: cell-based; details: MT-4, 84V90M; read-out: Cell-based assay (MT-4) EC50/nM 84V90M
48V54V82A [11] = test system: 48V54V82A; parameters: species or system HIV-1; details: MT-4, 48V54V82A; read-out: Cell-based assay (MT-4) EC50/nM 48V54V82A
[12] = target: recombinant HIV-1 protease (Human immunodeficiency virus type 1 group M subtype B, UniProt P04585); assay: biochemical; format: biochemical
84V90M [13] = target: T1, 84V90M; assay: Enzymatic assay, IC50 against 84V90M mutant protease; format: biochemical, HIV-1
46I50V [14] = test system: 46I50V; parameters: species or system HIV-1; details: MT-4, 46I50V; read-out: Cell-based assay (MT-4) EC50/nM 46I50V
[15] = Human immunodeficiency virus 1, read-out: EC50 [nM] WT HIV-1
[16] = Human immunodeficiency virus 1, read-out: Cell-based assay (MT-4) EC50 WT
[17] = MT-4, WT, read-out: Cell-based assay (MT-4) EC50/nM WT
[18] = Human immunodeficiency virus 1, read-out: Cell-based assay (MT-4) EC50 48V54V82A
[19] = Human immunodeficiency virus 1, read-out: Cell-based assay (MT-4) EC50 30N82I88D
[20] = Human immunodeficiency virus 1, read-out: Cell-based assay (MT-4) EC50 46I50V

With `CC(C)CN(C[C@@H](O)[C@H](Cc1ccccc1)NC(=O)O[C@H]1CCOC1)S(=O)(=O)c1ccc(N)cc1` [Amprenavir] the “AUC(2-24 hr) in PBMCs” value [1] was 102,000 nM · hr, the “t1/2” value [1] was 1.7 h and the “t1/2 (hr) in PBMCs” value [1] was 1.7 h. The “Total No. of Resistant Viruses” value ([2]; {}) was 4 and the EC50 (WT HIV-1; [15]) was 20 nM.

For `CCOC(=O)C(C)NP(=O)(COc1ccc(CC(NC(=O)OC2COC3OCCC23)C(O)CN(CC(C)C)S(=O)(=O)c2ccc(OC)cc2)cc1)Oc1ccccc1` (stereo not drawn) [GS-16571], the “Intracellular Acid Metabolite Concentration” value [3] was 319 ± 112 µM, the “Intracellular Prodrug Concentration” value [3] was 137 ± 62 µM and the “Intracellular Prodrug and Metabolites Concentration, uM: Acid Metabolite” value [3] was 319 ± 112 µM. For the same molecule, the “Intracellular Prodrug and Metabolites Concentration: Prodrug” value [3] was 137 ± 62 µM, the “Intracellular Prodrug and Metabolites Concentration: Total” value [3] was 432 ± 208 µM and the “Total No. of Resistant Viruses” value ([2]; of 11 mutant viruses, resistance = 5-fold and higher change in EC50 relative to wild-type) was 0.

In the case of `CC(C)(C)NC(=O)[C@@H]1CN(Cc2cccnc2)CCN1C[C@@H](O)C[C@@H](Cc1ccccc1)C(=O)N[C@H]1c2ccccc2C[C@H]1O` [Indinavir, reference compound], the “Total No. of Resistant Viruses” value ([2]; {}) is reported as 8 and the EC50 (WT HIV-1; [15]) is reported as 15 nM.

In the case of `Cc1c(O)cccc1C(=O)N[C@@H](CSc1ccccc1)[C@H](O)CN1C[C@H]2CCCC[C@H]2C[C@H]1C(=O)NC(C)(C)C` [Nelfinavir], the “AUC(2-24 hr) in PBMCs” value [1] is reported as 33,000 nM · hr, the “t1/2” value [1] is reported as 3.0 h and the “t1/2 (hr) in PBMCs” value [1] is reported as 3.0 h. For the same molecule, the “Total No. of Resistant Viruses” value ([2]; {}) was 9 and the EC50 (WT HIV-1; [15]) was 14 nM.

`Nc1n[nH]c2ccc(CN3C(=O)N(CCCOCP(=O)(O)O)C(Cc4ccccc4)C(O)C(O)C3Cc3ccccc3)cc12` (stereo not drawn) [OCH2PO3H2] gave an EC50 (84V90M [4]) greater than 6000 nM, an IC50 (84V90M [5]) of 137 nM and an EC50 (WT; [16]) of 1070 nM.

In the case of `CCOP(=O)(COc1ccc(CC2C(O)C(O)C(Cc3ccc(O)cc3)N(Cc3ccc(O)cc3)C(=O)N2Cc2ccc(O)cc2)cc1)OCC` (stereo not drawn) [OH, Ph-pOH, OCH2PO3Et2], the EC50 (48V54V82A [6]; MT-4, 48V54V82A, read-out: Cell-based assay (MT-4) EC50 48V54V82A) is reported as 986 nM, the EC50 (30N82I88D [7]; MT-4, 30N82I88D, read-out: Cell-based assay (MT-4) EC50 30N82I88D) is reported as 211 nM and the EC50 (46I50V [8]; MT-4, 46I50V, read-out: Cell-based assay (MT-4) EC50 46I50V) is reported as 1110 nM. It also gave an EC50 (WT; read-out: Cell-based assay (MT-4) EC50 WT) of 285 nM.

`CCOC(=O)C(C)OP(=O)(COc1ccc(C[C@@H]2[C@H](O)[C@@H](O)[C@@H](Cc3ccccc3)N(Cc3ccccc3)C(=O)N2Cc2ccccc2)cc1)Oc1ccccc1` (stereo partly drawn) [R=H, R1=Ph, R2=Mono-lac-Et] gave an EC50 (30N82I88D [9]) of 2790 nM, an EC50 [10] greater than 6000 nM and an EC50 (48V54V82A [11]) greater than 6000 nM. For the same molecule, the Ki ([12]; read-out: Enzymatic assay Ki) was 0.12 nM, the IC50 ([12]; read-out: Enzymatic assay WT IC50/nM) was 6.6 nM and the IC50 (84V90M [13]) was 56 nM. It also gave an EC50 (WT HIV-1; [17]) of 1730 nM.

With `O=C1N(Cc2ccccc2)[C@H](Cc2ccccc2)[C@H](O)[C@@H](O)[C@@H](Cc2ccc(O)cc2)N1Cc1ccccc1` [R=H, R1=Ph, R2=OH] the EC50 (30N82I88D [9]) was 2950 nM, the EC50 [10] was greater than 6000 nM and the EC50 (48V54V82A [11]) was greater than 6000 nM. It also gave an EC50 (WT HIV-1; [17]) of 1260 nM.

In the case of `CC(C)c1nc(CN(C)C(=O)N[C@H](C(=O)N[C@@H](Cc2ccccc2)C[C@H](O)[C@H](Cc2ccccc2)NC(=O)OCc2cncs2)C(C)C)cs1` [Ritonavir, reference compound], the “Total No. of Resistant Viruses” value ([2]; {}) is reported as 10 and the EC50 (WT HIV-1; [15]) is reported as 15 nM.

For `CC(C)(C)NC(=O)[C@@H]1C[C@@H]2CCCC[C@@H]2CN1C[C@@H](O)[C@H](Cc1ccccc1)NC(=O)[C@H](CC(N)=O)NC(=O)c1ccc2ccccc2n1` [Saquinavir, reference compound], the “Total No. of Resistant Viruses” value ([2]; {}) was 4 and the EC50 (WT HIV-1; [15]) was 4 nM.

In the case of `O=C1N(Cc2ccccc2)[C@H](Cc2ccccc2)[C@H](O)[C@@H](O)[C@@H](Cc2ccccc2)N1Cc1ccc2[nH]ncc2c1` [drawing 863, reference compound], the EC50 (84V90M [4]) is reported as 2310 nM and the IC50 (84V90M [5]; 84V90M enzyme, read-out: Enzymatic assay 84V90M IC50) is reported as 43.3 nM.

`O=C1N(Cc2ccccc2)[C@H](Cc2ccccc2)[C@H](O)[C@@H](O)[C@@H](Cc2ccccc2)N1Cc1ccc2[nH]ncc2c1` [drawing 870] showed an EC50 (30N82I88D [9]) of 281 nM, an EC50 (48V54V82A [11]) of 705 nM and an EC50 (46I50V [14]) of 772 nM. It also gave an EC50 (WT HIV-1; [17]) of 193 nM.

`Nc1n[nH]c2ccc(CN3C(=O)N(Cc4cccc(OCc5ccccc5)c4)C(Cc4ccccc4)C(O)C(O)C3Cc3ccccc3)cc12` (stereo not drawn) [m-OBn] gave an EC50 (48V54V82A [6]; [18]) of 709 nM, an EC50 (30N82I88D [7]; [19]) of 82 nM and an EC50 (84V90M [4]) of 2420 nM. The EC50 (46I50V [8]; [20]) was 601 nM, the IC50 (84V90M [5]) was 27 nM and the EC50 (WT; [16]) was 218 nM.

`Nc1n[nH]c2ccc(CN3C(=O)N(Cc4cccc(O)c4)C(Cc4ccccc4)C(O)C(O)C3Cc3ccccc3)cc12` (stereo not drawn) [m-OH] showed an EC50 (48V54V82A [6]; [18]) of 84 nM, an EC50 (30N82I88D [7]; [19]) of 249 nM and an EC50 (84V90M [4]) of 475 nM. It also gave an EC50 (46I50V [8]; [20]) of 104 nM and an EC50 (WT; [16]) of 151 nM.
